Like-named read-outs stand apart in the source and are kept apart here.
How the values were obtained:
P. aeruginosa PA01 (wt) = experiment: Antibiotic susceptibility testing (broth micro-dilution MIC), strain PA01; assay type: cell-based, Pseudomonas aeruginosa; conditions: for MIC: Pseudomonas aeruginosa
Description: (§1) Experiments were performed on the BAC-SCREEN platform of the UMR-MD1, with a Freedom EVO 150 liquid handling system (Tecan, Lyon, France).
(§2) The same experiment was performed using chloramphenicol (4 mg/L) in combination with 3 (10 μM final concentration). […] These experiments were performed to study the effect of our compounds on the natural resistance of P. aeruginosa. […] Experiments were performed with the ß-lactams ceftazidime and ticarcillin and ciprofloxacin and amikacin.

[1] = system: P. aeruginosa PT629 (Mex AB overproducer); experiment: Antibiotic susceptibility testing (broth micro-dilution MIC), strain PT629; assay type: cell-based, Pseudomonas aeruginosa; conditions: Pseudomonas aeruginosa
Description: as §1
(§3) We concluded that compound 3 was the best compound and suitable for a more detailed study. The same experiment was performed using chloramphenicol (4 mg/L) in combination with 3 (10 μM final concentration). Amongst the 20 clinical isolates, the growth of 15 (75%) was impaired, while 5 (25%) were resistant (data not shown). These experiments were performed to study the effect of our compounds on the natural resistance of P. aeruginosa. In addition, we were wondering if compound 3 could also increase susceptibility to other antibiotic families including ß-Lactams, fluoroquinolones and aminoglycosides, that are representative of the main classes of anti-pseudomonal agents. Experiments were performed with the ß-lactams ceftazidime and ticarcillin and ciprofloxacin and amikacin. […] . […] To better characterize compound 3, we first searched for the minimum concentration of compound that allowed killing of bacteria by doxycycline, and PAßN was used as the reference molecule.

[2] = system: P. aeruginosa PA01 ERY^R (Mex CD overproducer); experiment: microbe, parasite or virus in culture; assay type: cell-based, Pseudomonas aeruginosa; conditions: Pseudomonas aeruginosa
Description: as §1, §2

[3] = system: P. aeruginosa PA0-7H (Mex EF overproducer); experiment: Antibiotic susceptibility testing (broth micro-dilution MIC), strain PA0-7H; assay type: cell-based, Pseudomonas aeruginosa; conditions: Pseudomonas aeruginosa
Description: as §1, §3

[4] = system: P. aeruginosa CMZ091 (Mex XY overproducer); experiment: Antibiotic susceptibility testing (broth micro-dilution MIC), strain CMZ091; assay type: cell-based, Pseudomonas aeruginosa; conditions: Pseudomonas aeruginosa
Description: as §1, §3

[5] = system: clinical isolates of P. aeruginosa; experiment: Doxycycline MIC of the clinical isolates (S1 Table); assay type: cell-based; conditions: Pseudomonas aeruginosa
Description: The P. aeruginosa strains used in this study are described in Table 1. In addition, a series of 20 clinical isolates of P. aeruginosa obtained from the Hôpital d’Instruction des Armées Laveran, HIA-Laveran (Marseille, France) were also used in this study (S1 Table). Strains were stored at -80°C in 15% (v/v) glycerol for cryo-protection. Bacteria were routinely maintained on Mueller-Hinton (MH) agar plates and grown in cation-adjusted MH broth (MHBII) at 37°C.
as §1
Isolates Sampling location Sampling date Patient age Doxycycline MIC Main antibiotic resistance
AMK, LVX, OFX, TET, MIN, TGC, CHL, NET, CAR
PA2013-LAV17 Redon drain 15/12/2012 81 32 PIP, PIP/TZP, AZT, CAZ, TIC, TCC, FEP, FOS, TET,
TIC : ticarcillin, TCC : ticarcillin/clavulanic acid, FOS : fosfomycin, TET : tetracycline, MIN, minocycline, TCG, tigecycline, CAR : carbenicillin, PIP :
piperacillin, PIP/TZP : piperacillin/tazobactam, GEN : gentamycin, CAZ : ceftazidime, FEP : cefepime, TOB : tobramycin, IPM : imipenem, CIP :
ciprofloxacin, AMK : amikacin, LVX : levofloxacin, OFX : ofloxacin, NET : netilmicin, STR, streptomycin, MEM : meropenem.

P. aeruginosa PA01 = experiment: Checkerboard assay with doxycycline; assay type: cell-based, Pseudomonas aeruginosa; conditions: Pseudomonas aeruginosa; PA01, checkerboard plate; read-out: Doxycycline MIC (alone)
Description: Serial two-fold dilutions of antimicrobial agents were mixed together in a microtiter plate. The range of concentration of each drug was twice the MIC, down to the eleventh serial two-fold dilutions below this amount. Doxycycline was serially diluted along the X-axis, and the polyamino-isoprenic compound or PAßN was diluted along the Y-axis as indicated. Each well was inoculated with a bacterial inoculum of 5 x 10^5 CFU/ml, and the plates were incubated at 37°C for 18 h under aerobic conditions. Each plate also contained a row and a column in which a serial dilution of polyamino-isoprenic compound or doxycycline, respectively, was present alone to determine the MIC. The FIC index was calculated as follows: FIC index = FIC A + FIC B, where FIC A is the MIC of drug A in the combination/MIC of drug A alone and FIC B is the MIC of drug B in the combination/MIC of drug B alone. The combination was considered synergistic when the FIC index is ≤0.5, and antagonistic when the FIC index is > 4 [26].

[6] = PA01, antibiotic alone (∅), S3 Table, read-out: MIC
[7] = read-out: Minimal Inhibitory Concentration

Molecule: NCC[C@H](O)C(=O)N[C@@H]1C[C@H](N)[C@@H](O[C@H]2O[C@H](CN)[C@@H](O)[C@H](O)[C@H]2O)[C@H](O)[C@H]1O[C@H]1O[C@H](CO)[C@@H](O)[C@H](N)[C@H]1O [Amikacin, amikacin]
- MIC (P. aeruginosa PA01 (wt); [6]): 8 µg/mL
- MIC [1]: 4 µg/mL
- MIC [2]: 1 µg/mL
- MIC [3]: 4 µg/mL
- MIC [4]: 32 µg/mL

Molecule: O=C(O)c1cn(C2CC2)c2cc(N3CCNCC3)c(F)cc2c1=O [Ciprofloxacin, ciprofloxacin]
- MIC [1]: 0.5 to 1 µg/mL
- MIC [3]: 4 µg/mL
- MIC [4]: 0.5 µg/mL

Molecule: CC(C)(O/N=C(\C(=O)N[C@@H]1C(=O)N2C(C(=O)[O-])=C(C[n+]3ccccc3)CS[C@H]12)c1csc(N)n1)C(=O)O [Ceftazidime, ceftazidime]
- MIC (P. aeruginosa PA01 (wt); [6]): 2 µg/mL
- MIC [1]: 8 µg/mL
- MIC [3]: 1 µg/mL

Molecule: polymyxin-B
- Minimal Inhibitory Concentration (P. aeruginosa PA01 (wt); PA01, wt): < 10 µM

Molecule: CC1(C)S[C@@H]2[C@H](NC(=O)[C@H](C(=O)O)c3ccsc3)C(=O)N2[C@H]1C(=O)O [Ticarcillin, ticarcillin]
- MIC (P. aeruginosa PA01 (wt); [6]): 32 to 64 µg/mL
- MIC [1]: > 64 µg/mL
- MIC [2]: 32 to 64 µg/mL
- MIC [3]: 8 µg/mL
- MIC [4]: 16 to 32 µg/mL

Molecule: C[C@H]1c2cccc(O)c2C(=O)C2=C(O)[C@]3(O)C(=O)C(C(N)=O)=C(O)[C@@H](N(C)C)[C@@H]3[C@@H](O)[C@@H]21 [doxycycline]
- MIC (P. aeruginosa PA01 (wt); PA01, wt, mean of 3 independent experiments, read-out: Minimal Inhibitory Concentration): 32 µg/mL
- MIC [1, 7]: > 32 µg/mL
- MIC [2, 7]: 16 µg/mL
- MIC [3, 7]: > 32 µg/mL
- MIC ([5]; isolate PA2013-LAV01): 32 µg/mL
- MIC ([5]; isolate PA2013-LAV02): 32 µg/mL
- MIC ([5]; isolate PA2013-LAV03): > 32 µg/mL
- MIC ([5]; isolate PA2013-LAV04): 32 µg/mL
- MIC ([5]; isolate PA2013-LAV05): > 32 µg/mL
- MIC ([5]; isolate PA2013-LAV06): 32 µg/mL
- MIC ([5]; isolate PA2013-LAV07): 32 µg/mL
- MIC ([5]; isolate PA2013-LAV08): 32 µg/mL
- MIC ([5]; isolate PA2013-LAV09): > 32 µg/mL
- MIC ([5]; isolate PA2013-LAV10): 32 µg/mL
- MIC ([5]; isolate PA2013-LAV11): 32 µg/mL
- MIC ([5]; isolate PA2013-LAV12): 32 µg/mL
- MIC ([5]; isolate PA2013-LAV13): 32 µg/mL
- MIC ([5]; isolate PA2013-LAV14): > 32 µg/mL
- MIC ([5]; isolate PA2013-LAV15): > 32 µg/mL
- MIC ([5]; isolate PA2013-LAV16): 32 µg/mL
- MIC ([5]; isolate PA2013-LAV17): 32 µg/mL
- MIC ([5]; isolate PA2013-LAV18): > 32 µg/mL
- MIC ([5]; isolate PA2013-LAV19): 32 µg/mL
- MIC ([5]; isolate PA2013-LAV20): > 32 µg/mL
- MIC (P. aeruginosa PA01): 32 µg/mL

— article PMC4859512, “Polyamino-Isoprenic Derivatives Block Intrinsic Resistance of P. aeruginosa to Doxycycline and Chloramphenicol In Vitro” (PLoS ONE, 2016)
